Where “and” joins values, the source holds several entries; their conditions need not be identical. Identical values can stand only once.
How the values were obtained:
[1] = Stability of ^89Zr complexes in human serum at 37° C. for 7 d (ITLC, SEC)
Protocol: Seven day old samples of the Zr-ligand complexes were run down a size exclusion column to differentiate protein and ligand.
Serum stability and immunoreactivity of ^89Zr-complexes were evaluated. To determine the stability in serum, ^89Zr-complexes were incubated in human serum at 37° C. for 7 d. The percentage of intact species was monitored by ITLC (Table 9).
^89Zr-ligand and ^89Zr-ligand-antibody complexes were prepared according to the radiolabeling protocol as described above. For each ^89Zr complex, samples were made consisting of 900 μL human serum and 100 μL of the ^89Zr species and were placed in a heat block at 37° C. with agitation. Samples were monitored using radio-TLC before being added to the serum and then after 1 week of incubation. The stability of the complexes was measured as the percentage of ^89Zr that was retained at the origin of the ITLC strip and therefore still intact.

FIG. 2 = assay: FIG. 2
Source text: Table printed on a drawing sheet, FIG. 2
(§1) In contrast, ^89Zr-HOPO is shown to be approximately impervious to the EDTA. […] This represents a significant improvement in the stability of the Zr-ligand complex at lower pH. […] Initially activity is seen in the bladder, gall bladder, and intestines.
First reader's note: Cell hatching encodes the percent-intact class given in the legend; the values show stability of the radiometal-chelator complexes against EDTA transchelation.

[2] = EDTA transchelation challenge of ^89Zr complexes; assay type: physicochemical; conditions: 50-fold excess of EDTA, 37° C., various pHs, 7 days
Source text: as §1

[3] = Partition coefficients of ^89Zr complexes at pH 7.4; assay type: physicochemical
Source text: Without having to be bound to any theory, the difference in clearance pathways between the two complexes is the difference in their partitions coefficients.

[4] = Biodistribution and clearance of ^89Zr-HOPO and ^89Zr-DFO in healthy mice; assay type: in vivo, healthy athymic nude mice; set-up: biodistribution Spleen / biodistribution Stomach / biodistribution Large Intestine / biodistribution Small Intestine / biodistribution Kidney / biodistribution Bladder / biodistribution Muscle / biodistribution Bone / biodistribution Tail / biodistribution Blood / biodistribution Heart / biodistribution Lung / biodistribution Gall Bladder / biodistribution Liver: unit not given here
Source text: Significant uptake of ^89Zr-HOPO occurs in the gall bladder and intestines as well as the kidney. […] As ^89Zr-DFO is cleared exclusively through the kidneys and not through the hepatobiliary system, it is excreted from the body faster than ^89Zr-HOPO, as evidenced by the blood clearance curve (FIG. 10). While not wishing to be bound to theory, upon conjugation to an antibody, the pharmacokinetics of a ^89Zr-HOPO complex comprising ^89Zr-HOPO and an antibody can be superseded by those of the biomacromolecule, meaning that a difference in clearance pathways between ^89Zr-HOPO and ^89Zr-DFO should not be a concern. However, over the short circulation time of the Zr-ligand complexes, neither DFO nor HOPO show any signs of instability or bone accumulation.

SMILES: CC(=O)N(O)CCCCCNC(=O)CCC(=O)N(O)CCCCCNC(=O)CCC(=O)N(O)CCCCCNC(=S)Nc1ccc(N=C=S)cc1 (89Zr complex, metal not drawn) [p-SCN-Bn-DFO]
- percentage of intact species, Ligand Only ([1]; ^89Zr-ligand complex, human serum, 7 d, ITLC): 97.7±0.2%

SMILES: O=C1NCCCN2CCCCN3CCCNC(=O)c4cccc(=O)n4[O][89Zr]([O]n4c1cccc4=O)([O]n1c(cccc1=O)C2=O)[O]n1c(cccc1=O)C3=O [^89Zr-HOPO]
- % INTACT STARTING SPECIES BY INCUBATION TIME | 1 h (FIG. 2): 99.8±0.4% and 99.3±1.3% and 99.0±1.8%
- % INTACT STARTING SPECIES BY INCUBATION TIME | 7 d (FIG. 2): 99.6±0.7% and 99.2±1.5%
- % INTACT STARTING SPECIES BY INCUBATION TIME | INITIAL (FIG. 2): 99.7±0.6% and 99.5±0.9%
- stability in human serum (ITLC and SEC) ([1]; bare ligand complexes, one week): stable in serum over 7 days
- stability to transchelation by EDTA [2]: remains intact for the full 7 days
- partition coefficient (lipophilicity) [3]: more lipophilic than ^89Zr-DFO
- biodistribution Bladder ([4]; 10 min): 2.04 ± 1.06
- biodistribution Blood ([4]; 10 min): 3.24 ± 0.66
- biodistribution Bone ([4]; 10 min): 1.04 ± 0.44
- biodistribution Gall Bladder ([4]; 10 min): 6.61 ± 2.87
- biodistribution Heart ([4]; 10 min): 1.57 ± 0.22
- biodistribution Kidney ([4]; 10 min): 9.46 ± 2.71
- biodistribution Large Intestine ([4]; 10 min): 0.26 ± 0.15
- biodistribution Liver ([4]; 10 min): 3.29 ± 0.75
- biodistribution Lung ([4]; 10 min): 1.07 ± 0.17
- biodistribution Muscle ([4]; 10 min): 0.36 ± 0.06
- biodistribution Small Intestine ([4]; 10 min): 5.99 ± 1.18
- biodistribution Spleen ([4]; 10 min): 0.31 ± 0.04
- biodistribution Stomach ([4]; 10 min): 1.22 ± 0.39
- biodistribution Tail ([4]; 10 min): 4.25 ± 1.46
- Blood/Bone ratio ([4]; 1 h): 0.6 ± 0.4
- Muscle/Bone ratio ([4]; 1 h): 0.34 ± 0.15
- biodistribution Bladder ([4]; 1 h): 0.73 ± 0.36
- biodistribution Blood ([4]; 1 h): 0.17 ± 0.10
- biodistribution Bone ([4]; 1 h): 0.29 ± 0.09
- biodistribution Gall Bladder ([4]; 1 h): 6.94 ± 3.38
- biodistribution Heart ([4]; 1 h): 0.12 ± 0.06
- biodistribution Kidney ([4]; 1 h): 1.05 ± 0.51
- biodistribution Large Intestine ([4]; 1 h): 0.09 ± 0.06
- biodistribution Liver ([4]; 1 h): 0.22 ± 0.09
- biodistribution Lung ([4]; 1 h): 0.17 ± 0.09
- biodistribution Muscle ([4]; 1 h): 0.10 ± 0.03
- biodistribution Small Intestine ([4]; 1 h): 1.11 ± 0.35
- biodistribution Spleen ([4]; 1 h): 0.09 ± 0.03
- biodistribution Stomach ([4]; 1 h): 0.30 ± 0.15
- biodistribution Tail ([4]; 1 h): 0.81 ± 0.34
- Blood/Bone ratio ([4]; 4 h): 0.2 ± 0.2
- Muscle/Bone ratio ([4]; 4 h): 0.4 ± 0.3
- biodistribution Bladder ([4]; 4 h): 0.58 ± 0.27
- biodistribution Blood ([4]; 4 h): 0.05 ± 0.04
- biodistribution Bone ([4]; 4 h): 0.23 ± 0.12
- biodistribution Gall Bladder ([4]; 4 h): 1.00 ± 0.41
- biodistribution Heart ([4]; 4 h): 0.06 ± 0.01
- biodistribution Kidney ([4]; 4 h): 0.40 ± 0.14
- biodistribution Large Intestine ([4]; 4 h): 7.17 ± 2.15
- biodistribution Liver ([4]; 4 h): 0.13 ± 0.01
- biodistribution Lung ([4]; 4 h): 0.08 ± 0.01
- biodistribution Muscle ([4]; 4 h): 0.09 ± 0.06
- biodistribution Small Intestine ([4]; 4 h): 0.12 ± 0.13
- biodistribution Spleen ([4]; 4 h): 0.06 ± 0.01
- biodistribution Stomach ([4]; 4 h): 0.50 ± 0.74
- biodistribution Tail ([4]; 4 h): 0.29 ± 0.18
- biodistribution Bladder ([4]; 12 h): 0.54 ± 0.26
- biodistribution Blood ([4]; 12 h): 0.02 ± 0.00
- biodistribution Bone ([4]; 12 h): 0.25 ± 0.07
- biodistribution Gall Bladder ([4]; 12 h): 2.45 ± 1.02
- biodistribution Heart ([4]; 12 h): 0.06 ± 0.01
- biodistribution Kidney ([4]; 12 h): 0.53 ± 0.23
- biodistribution Large Intestine ([4]; 12 h): 0.10 ± 0.03
- biodistribution Liver ([4]; 12 h): 0.09 ± 0.02
- biodistribution Lung ([4]; 12 h): 0.06 ± 0.01
- biodistribution Muscle ([4]; 12 h): 0.06 ± 0.01
- biodistribution Small Intestine ([4]; 12 h): 0.02 ± 0.01
- biodistribution Spleen ([4]; 12 h): 0.05 ± 0.01
- biodistribution Stomach ([4]; 12 h): 0.01 ± 0.00
- biodistribution Tail ([4]; 12 h): 0.11 ± 0.04
- Blood/Bone ratio ([4]; 1 d): 0.12 ± 0.02
- Muscle/Bone ratio ([4]; 1 d): 0.35 ± 0.09
- biodistribution Bladder ([4]; 24 h): 0.28 ± 0.14
- biodistribution Blood ([4]; 24 h): 0.02 ± 0.00
- biodistribution Bone ([4]; 24 h): 0.17 ± 0.03
- biodistribution Gall Bladder ([4]; 24 h): 1.15 ± 0.59
- biodistribution Heart ([4]; 24 h): 0.07 ± 0.01
- biodistribution Kidney ([4]; 24 h): 0.51 ± 0.29
- biodistribution Large Intestine ([4]; 24 h): 0.03 ± 0.02
- biodistribution Liver ([4]; 24 h): 0.06 ± 0.03
- biodistribution Lung ([4]; 24 h): 0.06 ± 0.05
- biodistribution Muscle ([4]; 24 h): 0.06 ± 0.01
- biodistribution Small Intestine ([4]; 24 h): 0.02 ± 0.00
- biodistribution Spleen ([4]; 24 h): 0.06 ± 0.01
- biodistribution Stomach ([4]; 24 h): 0.02 ± 0.00
- biodistribution Tail ([4]; 24 h): 0.05 ± 0.01
- Blood/Bone ratio ([4]; […]): 3.1 ± 1.5
- Muscle/Bone ratio ([4]; […]): 0.35 ± 0.16
- clearance route ([4]; healthy mice): cleared through both renal and hepatobiliary excretion

Reference: patent publication US10821195B2, “Compositions for therapeutics, targeted PET imaging and methods of their use” (Memorial Sloan Kettering Cancer Center, priority 2015, dated 2020)
